Assay results from patent US11767295B2, “Isoindole derivative” (TIANJIN HEMAY PHARMACEUTICAL CO., LTD., priority 2018, dated 2023).

Legend:
Assay type in all cases: in vivo
ICR mice = test: Acute toxicity test of single gavage in mice (Biological Example 9); conditions: single gavage 2000 mg/Kg; for Clinical observation: appearance, breath, behavior, reflex and defecation / Dissection and general observation of each organ / Organ indexes / Death of animals: ICR mice; for Clinical observation: appearance, breath, behavior, reflex and defecation: male and female; for Death of animals: 3 male and 3 female, until the end of the test
Protocol: 30 healthy ICR mice of SPF grade were randomly divided into 5 groups according to the gender segment, in which 15 mice were male and 15 mice were female. There were 3 mice/gender/group. There were 6 mice in each group, in which 3 mice were male and 3 mice were female.
Single administration by gavage was carried out. The symptoms and responses of all the animals were observed after the administration and were recorded faithfully. The test was observed continuously for 15 days. The symptoms of the animals were recorded. After the test, the tissues and organs of all the animals were weighed, observed and recorded. The specimens were kept.
Body weight, appearance, breath, behavior, reflex and defecation.

[1] = tested on: Phorbol ester (TPA)-induced ear swelling in mice; test: Inhibition of phorbol ester (TPA)-induced ear swelling in mice (Biological Example 5); conditions: ICR mice, 5 hours after TPA modeling; for Ear Swelling Rate / Inhibitory Rate of Ear Swelling Degree: 2 mg/mouse on right ear; for Ear Swelling Rate: (right−left)/left ear weight; for Inhibitory Rate of Ear Swelling Degree: vs model and blank control; for Ear Swelling Degree: 50 mg/mL in acetone, 40 μL in 2 administrations (2 mg/mouse)
Protocol: (§1) 72 male ICR mice were selected and divided into 9 groups. There were 8 mice in each group.
(§2) Before the test, the animals were grouped and the hair around the right ear of the mice was removed.
(§3) 20 μL of respective drug was applied to the animals in each test group (a blank solvent was applied to the model control group). Modeling and induction were carried out after 1 h 10 min. Except for the blank group, 20 μL of TPA at a concentration of 125 μg/mL were applied to the right ears of the animals for induction. After induction for 10 minutes, 20 μL of respective drug were applied to the right ears of the animals in each test group (a blank solvent was applied to the model control group).
After modeling for 5 hours, ear pieces of both sides on the same location of animals in each group were taken with a punch and weighed to calculate the ear swelling degree, ear swelling rate and inhibitory rate.
(§4) The ear swelling degree and ear swelling rate after modeling and administration for 5 hours were analyzed and tested with One-Way ANOVA multiple-group test index in SPSS17.0. P<0.05 indicated there were statistical differences. Ear swelling degree (mg)=right ear weight (mg)−left ear weight (mg); Ear swelling rate (%)=(right ear weight−left ear weight)/left ear weight×100%; Inhibitory rate of ear swelling degree (%)=1−(ear swelling degree of drug administration group−ear swelling degree of blank control group)/(ear swelling degree of model control group−ear swelling degree of blank control group)×100%.

[2] = tested on: DNCB-induced atopic dermatitis in Balb/c mice; test: Efficacy evaluation test of DNCB-induced atopic dermatitis in Balb/c mice model (Biological Example 1); conditions: BID × 10
Protocol: 60 healthy male SPF Balb/c mice, each of which the body weight was 19-21 g, were randomly divided into 6 groups by body weight. There were 10 mice in each group.
(§5) Before the test, the hair around the right ear of the mouse was removed to reduce the interference in the drug adhesion to the hair.
(§6) The start of the test was recorded as Day 1. The specific time for measuring ear thickness was slightly adjusted based on FIG. 1. After the end of the 18th day of the test, blood was taken from each animal to detect the concentration of immunoglobulin (IgE) in the serum (in accordance with the kit instructions). Both ears of the animal were cut off. Ear pieces were cut by an 8 mm punch at the fixed position of the ears and weighed. Differences in the swelling degrees of two ears were calculated.
The changes in mouse ear thickness and the ear weights of the same area and the IgE concentrations in the serum among different groups on the 18th day were analyzed and compared statistically with One-Way Anova in SPSS 17, respectively. The G test method was used to delete outliers. p<0.05 indicated there were statistical differences. Ear swelling degree (mg)=right ear weight (mg)−left ear weight (mg); Ear thickness change (mm)=right ear thickness (mm)−left ear thickness (mm); Inhibitory rate of ear swelling degree (%)=1−(ear swelling degree of drug administration group−ear swelling degree of blank control group)/(ear swelling degree of model control group−ear swelling degree of blank control group)×100%; Inhibitory rate of ear thickness change (%)=1−(ear thickness change of drug administration group−ear thickness change of blank control group)/(ear thickness change of model control group−ear thickness change of blank control group)×100%; Inhibitory rate of IgE (%)=1−(IgE concentration in administration group−IgE concentration in blank control group)/(IgE concentration in model control group−IgE concentration in blank control group)×100%.

[3] = tested on: Phorbol ester (TPA)-induced ear swelling in mice; test: Inhibition of phorbol ester (TPA)-induced ear swelling in mice (Biological Example 6); conditions: ICR mice, 5 hours after TPA modeling; for Ear Swelling Rate / Inhibitory Rate of Ear Swelling Degree: 2 mg/mouse on right ear; for Ear Swelling Rate: (right−left)/left ear weight; for Inhibitory Rate of Ear Swelling Degree: vs model and blank control; for Ear Swelling Degree: 50 mg/mL in acetone, 40 μL in 2 administrations (2 mg/mouse)
Protocol: as §1, §2, §3
After modeling for 5 hours, ear pieces of both sides at the same location of animals in each group were taken with a punch and weighed to calculate the ear swelling degree, ear swelling rate and inhibitory rate.
as §4, with “P<0.05 indicated there were statistical differences.” left out, “(%)=1−(swelling” for “(%)=1−(ear swelling”, “group−swelling” for “group−ear swelling”, “group)/(swelling” for “group)/(ear swelling”

[4] = tested on: DNCB-induced atopic dermatitis in Balb/c mice; test: Efficacy evaluation test of DNCB-induced atopic dermatitis in Balb/c mice model (Biological Example 2); conditions: BID × 10; for Inhibitory Rate of Ear Swelling / Weight Changes of Animals, Day 10 / Weight Changes of Animals, Day 17 / Weight Changes of Animals, Day 18 / Ear Swelling Degree / IgE Concentration / Inhibitory Rate of IgE Concentration: 1 mg/mouse on ear; for Inhibitory Rate of Ear Swelling / Ear Swelling Degree / IgE Concentration / Inhibitory Rate of IgE Concentration: 18th day; for Inhibitory Rate of Ear Swelling / Inhibitory Rate of IgE Concentration: vs model and blank control; for Weight Changes of Animals, Day 1 / Weight Changes of Animals, Day 10 / Weight Changes of Animals, Day 17 / Weight Changes of Animals, Day 18: Balb/c mice, Mean ± S.D.; for Weight Changes of Animals, Day 1: 1 mg/mouse (50 mg/mL, 20 μL) on ear; for Ear Swelling Degree: right minus left ear piece weight; for IgE Concentration / Inhibitory Rate of IgE Concentration: serum
Protocol: 70 healthy male SPF Balb/c mice, each of which the weight was 19-21 g, were randomly divided into 7 groups by body weight. There were 10 mice in each group.
as §5
as §6, with “Day” for “Day 1. The specific time for measuring ear thickness was slightly adjusted based on FIG.”
The IgE concentrations in the serum of different groups on the 18th day were analyzed and compared statistically with One-Way Anova in SPSS 17, respectively. The G test method was used to delete outliers. p<0.05 indicated there were statistical differences. Ear swelling degree (mg)=right ear weight (mg)−left ear weight (mg); Inhibitory rate of ear swelling degree (%)=1−(ear swelling degree of drug administration group−ear swelling degree of blank control group)/(ear swelling degree of model control group−ear swelling degree of blank control group)×100%; Inhibitory rate of IgE (%)=1−(IgE concentration in administration group−IgE concentration in blank control group)/(IgE concentration in model control group−IgE concentration in blank control group)×100%.

[5] = female ICR mice, observed 15 days
[6] = Balb/c mice, 1 mg/mouse on ear, Day 10, Mean ± S.D.
[7] = Balb/c mice, 1 mg/mouse on ear, Day 17, Mean ± S.D.
[8] = Balb/c mice, 1 mg/mouse on ear, Day 18, Mean ± S.D.
[9] = female ICR mice, end of the test
[10] = surviving male ICR mice, end of the experiment

SMILES | Clinical observation, female animals (ICR mice; [5]) | Ear Swelling Rate [1] [%] | Inhibitory Rate of Ear Swelling Degree [1] [%] | Ear Swelling Degree [1] [mg] | Clinical observation: appearance, breath, behavior, reflex and defecation (ICR mice; observed 15 days) | Dissection and general observation of each organ (ICR mice; end of the test) | Organ indexes (ICR mice; end of the test) | Ear Swelling Rate [3] [%] | Inhibitory Rate of Ear Swelling Degree [3] [%] | Ear Swelling Degree [3] [mg] | Inhibitory Rate of Ear Swelling [4] [%] | Weight Changes of Animals, Day 1 [4] [g] | Weight Changes of Animals, Day 10 [4] [g] | Weight Changes of Animals, Day 17 [4] [g] | Weight Changes of Animals, Day 18 [4] [g] | Ear Swelling Degree [4] [mg] | IgE Concentration [4] [ng/mL] | Inhibitory Rate of IgE Concentration [4] [%] | Death of animals (ICR mice) | also measured
CCOc1ccc(C(CC(=O)OC)N2C(=O)c3cccc(NC(C)=O)c3C2=O)cc1OCC (stereo not drawn) [Example 4, methyl 3-(4-acetamido-1,3-dioxoisoindolin-2-yl)-3-(3,4-diethoxyphenyl)propionate] | After administration, no abnormalities of female animals | 34.3 ± 18.2 | 88.8 | 4.8 ± 2.1 | – | – | – | – | – | – | – | – | – | – | – | – | – | – | – | Clinical observation, male animals (ICR mice; male ICR mice, observed 15 days): The male animals had reduced activity and recovered after
CCCOC(=O)CC(c1ccc(OC)c(OCC)c1)N1C(=O)c2cccc(NC(C)=O)c2C1=O (stereo not drawn) [Example 11, propyl 3-(4-acetamido-1,3-dioxoisoindolin-2-yl)-3-(3-ethoxy-4-methoxyphenyl)propionate] | – | 46.3 ± 35.7 | 81.7 | 6.5 ± 5.0 | No obvious abnormalities of appearance, breath, behavior, | No obvious abnormalities related to the compounds were | No obvious abnormalities of organ indexes were observed. | – | – | – | – | – | – | – | – | – | – | – | – | Inhibitory Rate of Ear Swelling Degree ([2]; 1 mg/mouse on ear, 18th day, vs model and blank control): 49.2%; Weight Changes of Animals, Day 1 ([2]; Balb/c mice, 1 mg/mouse (50 mg/mL, 20 μL) on ear, Day 1, Mean ± S.D.): 20.3 ± 1.3 g; Inhibitory Rate of Ear Thickness ([2]; Balb/c mice, 1 mg/mouse on ear, 18th day, vs model and blank control): 51.5%; Ear Thickness Change, Day 1 ([2]; Balb/c mice, 1 mg/mouse on ear, Day 1, Mean ± S.D.): 0.22 ± 0.01 mm; Ear Thickness Change, Day 10 [2, 6]: 0.33 ± 0.09 mm; Weight Changes of Animals, Day 10 [2, 6]: 21.6 ± 1.1 g; Ear Thickness Change, Day 17 [2, 7]: 0.35 ± 0.04 mm; Weight Changes of Animals, Day 17 [2, 7]: 21.2 ± 1.2 g; Ear Thickness Change, Day 18 [2, 8]: 0.48 ± 0.06 mm; Weight Changes of Animals, Day 18 [2, 8]: 21.1 ± 1.3 g; Ear Thickness ([2]; Table 4, Balb/c mice, 1 mg/mouse on ear, 18th day): 0.48 ± 0.06 mm; Ear Swelling Degree ([2]; right minus left ear piece weight (8 mm punch), 1 mg/mouse on ear, 18th day): 12.8 ± 4.9 mg; IgE Concentration ([2]; serum, 1 mg/mouse on ear, 18th day): 5854.5 ± 2631.7 ng/mL; Inhibitory Rate of IgE Concentration ([2]; serum, 1 mg/mouse on ear, 18th day, vs model and blank control): 36.5%
CCCOc1ccc(C(CC(=O)OC)N2C(=O)c3cccc(NC(C)=O)c3C2=O)cc1OCC (stereo not drawn) [Example 31, methyl 3-(4-acetamido-1,3-dioxoisoindolin-2-yl)-3-(3-ethoxy-4-propoxyphenyl)propionate] | – | – | – | – | No obvious abnormalities of appearance, breath, behavior, | No obvious abnormalities related to the compounds were | No obvious abnormalities of organ indexes were observed. | 34.3 ± 14.9 | 87.6 | 4.9 ± 2.0 | – | – | – | – | – | – | – | – | – | –
COC(=O)CC(c1ccc(OC)c(OC(C)C)c1)N1C(=O)c2cccc(NC(C)=O)c2C1=O (stereo not drawn) [Example 46, methyl 3-(4-acetamido-1,3-dioxoisoindolin-2-yl)-3-(3-isopropoxy-4-methoxyphenyl)propionate] | – | – | – | – | – | – | – | 44.9 ± 35.5 | 82.0 | 6.4 ± 5.3 | 36.2 | 21.6 ± 0.7 | 22.6 ± 0.6 | 23.0 ± 0.7 | 23.1 ± 0.7 | 18.6 ± 3.9 | 4429.8 ± 1713.9 | 51.7 | – | –
CCOC(=O)C[C@@H](c1ccc(OC)c(OCC)c1)N1C(=O)c2cccc(NC(C)=O)c2C1=O [Example 52, ethyl (S)-3-(4-acetamido-1,3-dioxoisoindolin-2-yl)-3-(3-ethoxy-4-methoxyphenyl)propionate] | No obvious abnormalities in female animals were observed | – | – | – | – | – | – | – | – | – | 60.1 | 21.8 ± 0.5 | 22.6 ± 0.9 | 24.3 ± 5.6 | 24.2 ± 6.0 | 12.0 ± 5.4 | 4141.5 ± 2315.0 | 55.5 | 1 male animal died in the second day of the test. It was | Gross anatomy, female animals (ICR mice; [9]): until the end of the test. No abnormalities of gross anatomy; Organ indexes, female animals (ICR mice; [9]): until the end of the test. No abnormalities of gross anatomy; Gross anatomy, male animals (ICR mice; [10]): observed until the end of the experiment. No abnormalities; Organ indexes, male animals (ICR mice; [10]): observed until the end of the experiment. No abnormalities
COC(=O)C[C@@H](c1ccc(OC)c(OC(C)C)c1)N1C(=O)c2cccc(NC(C)=O)c2C1=O [Example 54, methyl (S)-3-(4-acetamido-1,3-dioxoisoindolin-2-yl)-3-(3-isopropoxy-4-methoxyphenyl)propionate] | – | – | – | – | The main symptom after administration was reduced | – | – | – | – | – | 43.1 | 21.6 ± 0.6 | 22.6 ± 0.8 | 23.3 ± 1.2 | 23.1 ± 1.2 | 16.7 ± 3.0 | 4873.7 ± 1356.2 | 45.9 | activity. No death or abnormality of animals was observed | –
